Measurements from PubChem BioAssay AID1259407 (Chemical Carcinogenesis Research Information System (CCRIS), 2018).
Active and inactive are the calls of the source. How the calls were made is not given here.

System: CCRIS mutagenicity, Ames/micronucleus/aberration tests
Experiment: CCRIS mutagenicity studies
[1] = Test System: AMES SALMONELLA TYPHIMURIUM, Strain/Indicator: TA98, Metabolic Activation: NONE, Method: STANDARD PLATE
[2] = Test System: AMES SALMONELLA TYPHIMURIUM, Strain/Indicator: TA100, Metabolic Activation: NONE, Method: STANDARD PLATE
[3] = Test System: AMES SALMONELLA TYPHIMURIUM, Strain/Indicator: TA1535, Metabolic Activation: NONE, Method: STANDARD PLATE
[4] = Test System: AMES SALMONELLA TYPHIMURIUM, Strain/Indicator: TA1537, Metabolic Activation: NONE, Method: STANDARD PLATE
[5] = Test System: AMES SALMONELLA TYPHIMURIUM, Strain/Indicator: TA1538, Metabolic Activation: NONE, Method: STANDARD PLATE
[6] = Test System: AMES SALMONELLA TYPHIMURIUM, Strain/Indicator: TA102, Metabolic Activation: NONE, Method: STANDARD PLATE

Cc1cc(N)c([N+](=O)[O-])c(C)c1N
mutagenic call [1]: inactive; negative
mutagenic call (Test System: AMES SALMONELLA TYPHIMURIUM, Strain/Indicator: TA98, Metabolic Activation: RAT, LIVER, S-9, AROCLOR 1254, Method: STANDARD PLATE): inactive; negative
mutagenic call [2]: inactive; negative
mutagenic call (Test System: AMES SALMONELLA TYPHIMURIUM, Strain/Indicator: TA100, Metabolic Activation: RAT, LIVER, S-9, AROCLOR 1254, Method: STANDARD PLATE): inactive; negative
mutagenic call [3]: inactive; negative
mutagenic call (Test System: AMES SALMONELLA TYPHIMURIUM, Strain/Indicator: TA1535, Metabolic Activation: RAT, LIVER, S-9, AROCLOR 1254, Method: STANDARD PLATE): inactive; negative
mutagenic call [4]: inactive; negative
mutagenic call (Test System: AMES SALMONELLA TYPHIMURIUM, Strain/Indicator: TA1537, Metabolic Activation: RAT, LIVER, S-9, AROCLOR 1254, Method: STANDARD PLATE): inactive; negative
mutagenic call [5]: inactive; negative
mutagenic call (Test System: AMES SALMONELLA TYPHIMURIUM, Strain/Indicator: TA1538, Metabolic Activation: RAT, LIVER, S-9, AROCLOR 1254, Method: STANDARD PLATE): inactive; negative

CCc1ccccc1NC(=O)c1csc([N+](=O)[O-])c1
mutagenic call [1]: active; positive
mutagenic call [2]: active; positive

COC(=O)c1cc2c(c3c1c([N+](=O)[O-])cc1c(OC)cccc13)OCO2
mutagenic call [1]: active; positive
mutagenic call [2]: active; positive
mutagenic call [6]: inactive; negative
mutagenic call [4]: active; positive
mutagenic call (Test System: AMES SALMONELLA TYPHIMURIUM, Strain/Indicator: TM677/8-AZAGUANINE, Metabolic Activation: NONE, Method: SUSPENSION/PLATE): inactive; negative

COc1cc(O)c2c(O)c3c(=O)oc(C)cc3c(OC)c2c1
mutagenic call (Test System: AMES SALMONELLA TYPHIMURIUM, Strain/Indicator: TA98, Metabolic Activation: MOUSE, LIVER, S-9, AROCLOR 1254, Method: STANDARD PLATE): active; positive
mutagenic call [1]: active; positive
mutagenic call (Test System: AMES SALMONELLA TYPHIMURIUM, Strain/Indicator: TA100, Metabolic Activation: MOUSE, LIVER, S-9, AROCLOR 1254, Method: STANDARD PLATE): active; positive
mutagenic call [2]: active; positive
mutagenic call (Test System: AMES SALMONELLA TYPHIMURIUM, Strain/Indicator: TA102, Metabolic Activation: MOUSE, LIVER, S-9, AROCLOR 1254, Method: STANDARD PLATE): active; positive
mutagenic call [6]: active; positive

CC(Br)(CCl)CBr (configuration not stated)
mutagenic call (Test System: AMES SALMONELLA TYPHIMURIUM, Strain/Indicator: TA98, Metabolic Activation: NONE, Method: FLASK ASSAY): inactive; negative
mutagenic call (Test System: AMES SALMONELLA TYPHIMURIUM, Strain/Indicator: TA98, Metabolic Activation: RAT, LIVER, S-9, AROCLOR 1254, Method: FLASK ASSAY): inactive; negative
mutagenic call (Test System: AMES SALMONELLA TYPHIMURIUM, Strain/Indicator: TA100, Metabolic Activation: NONE, Method: FLASK ASSAY): inactive; negative
mutagenic call (Test System: AMES SALMONELLA TYPHIMURIUM, Strain/Indicator: TA100, Metabolic Activation: RAT, LIVER, MICROSOMES, PHENOBARBITAL, Method: PREINCUBATION): inactive; negative
mutagenic call (Test System: AMES SALMONELLA TYPHIMURIUM, Strain/Indicator: TA100, Metabolic Activation: RAT, LIVER, MICROSOMES, Method: PREINCUBATION): inactive; negative
mutagenic call (Test System: AMES SALMONELLA TYPHIMURIUM, Strain/Indicator: TA100, Metabolic Activation: RAT, LIVER, S-9, AROCLOR 1254, Method: FLASK ASSAY): inactive; negative
mutagenic call (Test System: AMES SALMONELLA TYPHIMURIUM, Strain/Indicator: TA1535, Metabolic Activation: NONE, Method: FLASK ASSAY): inactive; negative
mutagenic call (Test System: AMES SALMONELLA TYPHIMURIUM, Strain/Indicator: TA1535, Metabolic Activation: RAT, LIVER, S-9, AROCLOR 1254, Method: FLASK ASSAY): inactive; negative
mutagenic call (Test System: AMES SALMONELLA TYPHIMURIUM, Strain/Indicator: TA1537, Metabolic Activation: NONE, Method: FLASK ASSAY): inactive; negative
mutagenic call (Test System: AMES SALMONELLA TYPHIMURIUM, Strain/Indicator: TA1537, Metabolic Activation: RAT, LIVER, S-9, AROCLOR 1254, Method: FLASK ASSAY): inactive; negative
mutagenic call (Test System: AMES SALMONELLA TYPHIMURIUM, Strain/Indicator: TA1538, Metabolic Activation: NONE, Method: FLASK ASSAY): inactive; negative
mutagenic call (Test System: AMES SALMONELLA TYPHIMURIUM, Strain/Indicator: TA1538, Metabolic Activation: RAT, LIVER, S-9, AROCLOR 1254, Method: FLASK ASSAY): inactive; negative
mutagenic call (Test System: MOUSE LYMPHOMA, Strain/Indicator: L5178Y (TK+/TK-), Metabolic Activation: NONE, Method: SUSPENSION/PLATE): active; positive
mutagenic call (Test System: MOUSE LYMPHOMA, Strain/Indicator: L5178Y (TK+/TK-), Metabolic Activation: RAT, LIVER, S-9, AROCLOR 1254, Method: SUSPENSION/PLATE): inactive; negative

Cc1ccc(C(O)(P(=O)(O)O)P(=O)(O)O)cc1N(CCCl)CCCl
mutagenic call [1]: inactive; negative
mutagenic call (Test System: AMES SALMONELLA TYPHIMURIUM, Strain/Indicator: TA98, Metabolic Activation: RAT, LIVER, S-9, AROCLOR, Method: STANDARD PLATE): inactive; negative
mutagenic call [2]: inactive; negative
mutagenic call (Test System: AMES SALMONELLA TYPHIMURIUM, Strain/Indicator: TA100, Metabolic Activation: RAT, LIVER, S-9, AROCLOR, Method: STANDARD PLATE): inactive; negative
mutagenic call [3]: inactive; negative
mutagenic call (Test System: AMES SALMONELLA TYPHIMURIUM, Strain/Indicator: TA1535, Metabolic Activation: RAT, LIVER, S-9, AROCLOR, Method: STANDARD PLATE): active; positive
mutagenic call [4]: inactive; negative
mutagenic call (Test System: AMES SALMONELLA TYPHIMURIUM, Strain/Indicator: TA1537, Metabolic Activation: RAT, LIVER, S-9, AROCLOR, Method: STANDARD PLATE): inactive; negative
mutagenic call [5]: inactive; negative
mutagenic call (Test System: AMES SALMONELLA TYPHIMURIUM, Strain/Indicator: TA1538, Metabolic Activation: RAT, LIVER, S-9, AROCLOR, Method: STANDARD PLATE): inactive; negative
